Entries after “also recorded” stand apart in the source; their conditions may differ. Bridge positions count the residues as written; N and C are the ends. Square brackets hold non-standard residues; d marks the D form. Ends that are not written are not given here. I, II: the chains in the order shown. βAla = NCCC(=O)O
Experiments:
[1] = system: CEM or C8166 cells; conditions: concentrations of 10^-7 to 10^-4M; 15 days
Procedure: (§1) An MTT assay, a colorimetric cell viability assay using 3-[4,5-Dimethylthiazol-2-yl] 2,5-diphenyltetrazolium bromide, was used to assess the effect of MBPCs on cell viability. CEM or C8166 cells (5x10^4) were cultured continuously (15 days) in the presence of various concentrations of MBPCs in the wells of 96-well microtiter plates in 200 µl final volume of RPMI 1640 medium supplemented with 5% fetal calf serum, 1% glutamine, 1% streptomycin-penicillin (available from Gibco of Irvine, Scotland) in a humidified atmosphere with 5% CO2. Every 3 to 4 days, an MTT assay was performed on 100 µl of cells suspension and MBPC were added to cell culture and the volume completed to 200 µl.

[2] = system: 8E5 cells; assay: Toxicity in the cell fusion test (MTT assay or trypan blue exclusion); conditions: Concentration (M) 5x10^-5
Procedure: Toxicity was evaluated by either MTT assay (described below) or trypan blue exclusion technique.
as §1

[3] = system: RT-deficient HIV-I(IIIB) isolate; assay: Inhibition of HIV-I induced cell fusion (8E5 cells co-cultivated with PHA stimulated human PBLs); assay type: cell-based; conditions: for Inhibition of HIV-I induced cell fusion (number of syncytia): after 24 hours
Text: 50 x 10^3 8E5 cells chronically infected with a RT-deficient HIV-I(IIIB) isolate, were co-cultivated with 150 x 10^3 phytohemagglutinin (PHA) stimulated human peripheral blood lymphocytes (PBLs) in the presence of the indicated peptide in 96-well plates. The MBPCs used are described by the peptides attached, and the number thereof, to a core lysine matrix, which is designated MLC. All amino acids used for this experiment were in dextro form.

[4] = system: HIV-1(89.6); assay: Infection of and syncytia formation in human primary macrophages; assay type: cell-based; conditions: MBPC 5x10^-5M; 10,000 TCID50; 4 days post-infection
Text: Mononuclear cells were isolated from leukophoresis units enriched for monocytes by Ficoll-Hypaque density separation. Macrophages were purified by adherence to plastic in RPMI 1640 supplemented with 10% fetal calf serum and 5% human AB serum. […] After thorough washing, the cells were fed again with medium and analyzed for HIV-1 p24^gag production and syncytia formation 4 days post-infection.

Compound	toxicity to cells (MTT assay) [1]	Toxicity [2]	Toxicity ([2]; listed as [RKSIHIGPGRAFYT]4-MLC)	syncytia formation / cell fusion (in words) [3]	Inhibition of HIV-I induced cell fusion (number of syncytia) ([3]; Concentration (M) 5x10^-5)	Inhibition of HIV-I induced cell fusion (number of syncytia) ([3]; Concentration (M) 5 x10^-6)	Inhibition of HIV-I induced cell fusion (number of syncytia) ([3]; Concentration (M) 5x10^-7)	infection of macrophages (in words) [4]
C[C@H](NC(=O)[C@H](CCCNC(=N)N)NC(=O)CNC(=O)[C@@H]1CCCN1C(=O)CN)C(=O)N[C@@H](Cc1ccccc1)C(=O)NCCCC[C@H](NC(=O)[C@H](Cc1ccccc1)NC(=O)[C@H](C)NC(=O)[C@H](CCCNC(=N)N)NC(=O)CNC(=O)[C@@H]1CCCN1C(=O)CN)C(=O)NCCCC[C@H](NC(=O)[C@H](CCCCNC(=O)[C@H](Cc1ccccc1)NC(=O)[C@H](C)NC(=O)[C@H](CCCNC(=N)N)NC(=O)CNC(=O)[C@@H]1CCCN1C(=O)CN)NC(=O)[C@H](Cc1ccccc1)NC(=O)[C@H](C)NC(=O)[C@H](CCCNC(=N)N)NC(=O)CNC(=O)[C@@H]1CCCN1C(=O)CN)C(=O)NCCCC[C@H](NC(=O)[C@H](CCCCNC(=O)[C@H](CCCCNC(=O)[C@H](Cc1ccccc1)NC(=O)[C@H](C)NC(=O)[C@H](CCCNC(=N)N)NC(=O)CNC(=O)[C@@H]1CCCN1C(=O)CN)NC(=O)[C@H](Cc1ccccc1)NC(=O)[C@H](C)NC(=O)[C@H](CCCNC(=N)N)NC(=O)CNC(=O)[C@@H]1CCCN1C(=O)CN)NC(=O)[C@H](CCCCNC(=O)[C@H](Cc1ccccc1)NC(=O)[C@H](C)NC(=O)[C@H](CCCNC(=N)N)NC(=O)CNC(=O)[C@@H]1CCCN1C(=O)CN)NC(=O)[C@H](Cc1ccccc1)NC(=O)[C@H](C)NC(=O)[C@H](CCCNC(=N)N)NC(=O)CNC(=O)[C@@H]1CCCN1C(=O)CN)C(=O)NCCC(=O)O [MBPC.3, (GPGRAF)8-(K)4-(K)2-K-βA-OH]	not toxic	–	–	–	–	–	–	–
C[C@H](NC(=O)[C@@H](CCCNC(=N)N)NC(=O)CNC(=O)[C@@H]1CCCN1C(=O)CN)C(=O)N[C@@H](Cc1ccccc1)C(=O)NCCCC[C@H](NC(=O)[C@H](Cc1ccccc1)NC(=O)[C@H](C)NC(=O)[C@@H](CCCNC(=N)N)NC(=O)CNC(=O)[C@@H]1CCCN1C(=O)CN)C(=O)NCCCC[C@H](NC(=O)[C@H](CCCCNC(=O)[C@H](Cc1ccccc1)NC(=O)[C@H](C)NC(=O)[C@@H](CCCNC(=N)N)NC(=O)CNC(=O)[C@@H]1CCCN1C(=O)CN)NC(=O)[C@H](Cc1ccccc1)NC(=O)[C@H](C)NC(=O)[C@@H](CCCNC(=N)N)NC(=O)CNC(=O)[C@@H]1CCCN1C(=O)CN)C(=O)NCCCC[C@H](NC(=O)[C@H](CCCCNC(=O)[C@H](CCCCNC(=O)[C@H](Cc1ccccc1)NC(=O)[C@H](C)NC(=O)[C@@H](CCCNC(=N)N)NC(=O)CNC(=O)[C@@H]1CCCN1C(=O)CN)NC(=O)[C@H](Cc1ccccc1)NC(=O)[C@H](C)NC(=O)[C@@H](CCCNC(=N)N)NC(=O)CNC(=O)[C@@H]1CCCN1C(=O)CN)NC(=O)[C@H](CCCCNC(=O)[C@H](Cc1ccccc1)NC(=O)[C@H](C)NC(=O)[C@@H](CCCNC(=N)N)NC(=O)CNC(=O)[C@@H]1CCCN1C(=O)CN)NC(=O)[C@H](Cc1ccccc1)NC(=O)[C@H](C)NC(=O)[C@@H](CCCNC(=N)N)NC(=O)CNC(=O)[C@@H]1CCCN1C(=O)CN)C(=O)NCCC(=O)O [[GPG(R)DAF]8-MLC]	–	Toxic	–	–	–	–	–	–
I: RKSIHIGPGRAFYTKK[βAla] / II: RKSIHIGPGRAFYTK / III: RKSIHIGPGRAFYT / IV: RKSIHIGPGRAFYT (amide I:15-IV:C, I:16-II:C, II:15-III:C) [MBPC.5]	–	–	some toxicity; also recorded: Toxic	–	–	–	–	–
[Ac-GPGRAF]8-MLC	–	–	–	significant loss of activity	- (- indicates the total absence of syncytia in the well)	+++	+++	–
[GPGRAF]8-MLCD	–	–	–	–	+++	+++	+++	significantly less active than [GPGRAF]8-MLC
[GPGRA]8-MLC	–	–	–	did not inhibit cell fusion	+++	+++	+++	–
[GPGR]8-MLC	–	–	–	did not inhibit cell fusion	+++	+++	+++	–
[IGPGRAF]8-MLC	–	–	–	significant loss of activity	- (- indicates the total absence of syncytia in the well)	±	+++	–
[RKSIHKGPGRAFYT]4-MLC	–	Toxic	–	–	–	- (- indicates the total absence of syncytia in the well)	+++	–
[RKSIHTGPGRAFYT]4-MLC	–	Toxic	–	–	–	- (- indicates the total absence of syncytia in the well)	+++	–

Source: patent EP0719281B1, “MULTIPLE BRANCH PEPTIDE CONSTRUCTIONS FOR USE AGAINST HIV” (priority 1993, dated 1995)
